According to patent publication US6479532B1, “Antifungal compositions” (Fujisawa Pharmaceutical Co., Ltd., priority 1999, dated 2002):
Counter-ions that a name gives are not always drawn. Marks after values point to notes of the source that are not given here.

Columns and labels:
Assay type in all cases: cell-based
Candida albicans 12012 [1] = assay: Agar plate dilution assay (checker board), PY + LC; details: 48 h, drug alone, test strain b, 30° C., 2 days
Procedure: (§1) Sabouraud's glucose agar (glucose 2%) Candida albicans was cultured in Sabouraud's broth medium (glucose 2%) at30° C. for 24 hours and the resulting culture was diluted 10-fold with the same medium as above (10^5 cells/ml) and used. Using ethyl alcohol for PY and dimethyl sulfoxide (DMSO) for LC, a 1 mg/ml solution of each drug was respectively prepared. Then, the solution was diluted to a predetermined concentration using 20% ethyl alcohol as diluent for PY and 10% DMSO as diluent for LC. For the determination of inhibitory activity, 0.5 ml of a PY solution and 0.5 ml of an LC solution, each adjusted to a predetermined concentration were blended with 9 ml of Sabouraud's glucose agar medium to prepare drug-containing plates (checker board method). Each plate was inoculated with a microbial suspension of predetermined concentration (cells or spores/ml) by the stamping method. Trichophyton spp. were cultured at 25° C. for 2 weeks and Candida spp. were cultured at 30° C. for 2 days. Then, the growth of each test strain was investigated. The FIC index was calculated from the MIC value of PY or LC as used alone or PY and LC as used in combination.

Candida albicans YU-1200 = assay: Agar plate dilution assay (checker board), PY + LC; details: YU1200, 48 h, drug alone, test strain a, 30° C., 2 days
Procedure: as §1

Trichophyton rubrum 7010 [2] = assay: Agar plate dilution assay (checker board), PY + LC; details: Trichophyton rubrum, 7010, 336 h
Procedure: (§2) Sabouraud's glucose agar (glucose 2%)
(§3) With Trichophyton spp., each strain was cultured on a Sabouraud's glucose agar (glucose 2%) slant at 25° C. for 2˜3 weeks. Then, about 3˜5 ml of physiological saline supplemented with 0.1% (w/v) Tween 80 and sterilized was added to the above slant culture of the test strain and conidia were liberated by scratching the slant surface with a platinum loop. The collected conidial suspension was filtered through a fine-mesh metal sieve to remove hyphal masses and, then, centrifuged at 3000×g for 10 minutes to concentrate the conidia. The concentrate was resuspended in the same sterile saline solution as above, the conidia were counted with a hemocytometer, and the suspension was adjusted to a predetermined conidial population (10^5 spores/ml).
(§4) Using ethyl alcohol for PY and dimethyl sulfoxide (DMSO) for LC, a 1 mg/ml solution of each drug was respectively prepared. Then, the solution was diluted to a predetermined concentration using 20% ethyl alcohol as diluent for PY and 10% DMSO as diluent for LC.
(§5) For the determination of inhibitory activity, 0.5 ml of a PY solution and 0.5 ml of an LC solution, each adjusted to a predetermined concentration were blended with 9 ml of Sabouraud's glucose agar medium to prepare drug-containing plates (checker board method).
(§6) Each plate was inoculated with a microbial suspension of predetermined concentration (cells or spores/ml) by the stamping method. Trichophyton spp. were cultured at 25° C. for 2 weeks and Candida spp. were cultured at 30° C. for 2 days. Then, the growth of each test strain was investigated.
(§7) The FIC index was calculated from the MIC value of PY or LC as used alone or PY and LC as used in combination.

Trichophyton rubrum 7030 [3] = assay: Agar plate dilution assay (checker board), PY + LC; details: Trichophyton rubrum, 7030, 336 h
Procedure: as §2, §3, §4, §5, §6, §7

Candida albicans 12012 [4] = assay: Fungicidal effect, viable cell count after 24 h in broth
Procedure: Medium used: Sabouraud's (glucose 2%) broth medium
Test strain: Candida albicans 12012
Inoculum size: about 10^4 cells/ml (1% of a 24-hour culture using Sabouraud's broth medium at 30° C.)
To one part by volume of a drug solution prepared at a concentration 10 times the predetermined concentration was added 9 parts by volume of the inoculated Sabouraud's broth medium, followed by mixing. The mixture was incubated at 30° C. for 24 hours and the MIC was determined.
Furthermore, 0.1 ml samples were taken from the test microbial suspensions of varying concentrations and inoculated onto Sabouraud's (glucose 2%) agar plates using Conradi's spreader.
After 2 days of culture at 30° C., the colonies formed were counted and the number of remaining viable cells per 0.1 ml was determined.

Trichophyton rubrum 7005 = assay: Agar plate dilution assay (checker board), PY + BTF
Procedure: as §3, §6, §7
(§8) For Trichophyton spp., the same medium as used in Test Example 1 was used.
(§9) With Trichophyton spp., the procedure of Test Example 1 was repeated.
(§10) A 1 mg/ml solution of each drug was prepared by using ethyl alcohol for PY or dimethyl sulfoxide (DMSO) for BTF and diluted to a predetermined concentration using 20% ethyl alcohol as diluent for PY or 10% DMSO as diluent for BTF.
(§11) In the case of Trichophyton spp., 0.5 ml of a PY solution and 0.5 ml of a BTF solution, both of predetermined concentration, were blended with 9 ml of the medium to prepare a drug-containing agar plate and the procedure of test Example 1 was repeated.
(§12) Calculation of the FIC index was also performed in the same manner as in Test Example 1.

Trichophyton rubrum 7030 [5] = assay: as above
Procedure: as §3, §6, §7, §8, §9, §10, §11, §12

[6] = test system: Staphylococcus epidermidis 15001; assay: as above; details: drug alone, test strain g, 37° C., 20 hours
Procedure: For the general bacterium (S. epidermidis), Mueller Hinton agar medium was used. The general bacterium was cultured in Mueller Hinton broth medium at 37° C. for 20 hours and the culture was diluted 100-fold with the same medium (10^6 cells/ml) and used. A 1 mg/ml solution of each drug was prepared by using ethyl alcohol for PY or dimethyl sulfoxide (DMSO) for BTF and diluted to a predetermined concentration using 20% ethyl alcohol as diluent for PY or 10% DMSO as diluent for BTF. In the case of the general bacterium, Mueller Hinton agar medium was used to prepare plates and the procedure of Test Example 1 was repeated. After 20 hours of culture at 37° C., the growth of the test organism was investigated. Calculation of the FIC index was also performed in the same manner as in Test Example 1.

Candida albicans 16010 = assay: Agar plate dilution assay (checker board), PY + TF; details: 48 h, drug alone, test organism h, 30° C., 2 days
Procedure: Mueller Hinton agar medium was used for Staphylococcus spp. and Sabouraud's glucose agar (glucose 2%) medium was used for the fungi. Candida albicans was cultured in Sabouraud's broth medium (glucose 2%) at 30° C. for 24 hours and the culture was diluted 10-fold (10^5 cells/ml) with the same medium and used. A 1 mg/ml solution of each drug was prepared using ethyl alcohol for PY or dimethyl sulfoxide (DMSO) for TF and diluted to a predetermined concentration by using 20% ethyl alcohol as diluent for PY or 10% DMSO as diluent for TF. For the determination of the growth-inhibitory effects of drugs on test organisms, drug-containing plates were prepared by blending 0.5 ml of a PY solution and 0.5 ml of a TF solution, both of predetermined concentration, with 9 ml of said medium. The plates were inoculated with the microbial suspensions (cells or spores/ml) by the stamping technique. Trichophyton spp. were cultured at 25° C. for 2 weeks, Candida spp. at 30° C. for 2 days, and Staphylococcus spp. at 37° C. for 20 hours. Then, the growth of each test organism was investigated (checker board method). The FIC index was calculated from the MIC value of PY or TF alone or the two drugs used in combination.

Trichophyton rubrum 7010 [7] = assay: Agar plate dilution assay (checker board), PY + TF
Procedure: (§13) Mueller Hinton agar medium was used for Staphylococcus spp. and Sabouraud's glucose agar (glucose 2%) medium was used for the fungi.
as §3
(§14) A 1 mg/ml solution of each drug was prepared using ethyl alcohol for PY or dimethyl sulfoxide (DMSO) for TF and diluted to a predetermined concentration by using 20% ethyl alcohol as diluent for PY or 10% DMSO as diluent for TF.
(§15) For the determination of the growth-inhibitory effects of drugs on test organisms, drug-containing plates were prepared by blending 0.5 ml of a PY solution and 0.5 ml of a TF solution, both of predetermined concentration, with 9 ml of said medium.
(§16) The plates were inoculated with the microbial suspensions (cells or spores/ml) by the stamping technique. Trichophyton spp. were cultured at 25° C. for 2 weeks, Candida spp. at 30° C. for 2 days, and Staphylococcus spp. at 37° C. for 20 hours. Then, the growth of each test organism was investigated (checker board method).
(§17) The FIC index was calculated from the MIC value of PY or TF alone or the two drugs used in combination.

Trichophyton rubrum 7030 [8] = assay: Agar plate dilution assay (checker board), PY + TF
Procedure: as §13, §3, §14, §15, §16, §17

[9] = test system: Staphylococcus aureus FP5; assay: Agar plate dilution assay (checker board), PY + TF; details: drug alone, test organism k, 37° C., 20 hours
Procedure: (§18) Mueller Hinton agar medium was used for Staphylococcus spp. and Sabouraud's glucose agar (glucose 2%) medium was used for the fungi. Staphylococcus spp. were cultured in Mueller Hinton broth medium at 37° C. for 18˜20 hours and diluted 100-fold with the same medium (about 10^6 cells/ml) and this dilution was used as the inoculum. A 1 mg/ml solution of each drug was prepared using ethyl alcohol for PY or dimethyl sulfoxide (DMSO) for TF and diluted to a predetermined concentration by using 20% ethyl alcohol as diluent for PY or 10% DMSO as diluent for TF. For the determination of the growth-inhibitory effects of drugs on test organisms, drug-containing plates were prepared by blending 0.5 ml of a PY solution and 0.5 ml of a TF solution, both of predetermined concentration, with 9 ml of said medium. The plates were inoculated with the microbial suspensions (cells or spores/ml) by the stamping technique. Trichophyton spp. were cultured at 25° C. for 2 weeks, Candida spp. at 30° C. for 2 days, and Staphylococcus spp. at 37° C. for 20 hours. Then, the growth of each test organism was investigated (checker board method). The FIC index was calculated from the MIC value of PY or TF alone or the two drugs used in combination.

[10] = test system: Staphylococcus epidermidis 15001; assay: Agar plate dilution assay (checker board), PY + TF; details: drug alone, test organism l, 37° C., 20 hours
Procedure: as §18

[11] = drug concentration 3.13 μg/ml, class symbol
[12] = drug concentration 6.25 μg/ml, class symbol

Compound	MIC (Candida albicans 12012 [1])	MIC (Candida albicans YU-1200)	MIC (Trichophyton rubrum 7010 [2])	MIC (Trichophyton rubrum 7030 [3])	Viable cell count (Candida albicans 12012 [4]; [11])	Viable cell count (Candida albicans 12012 [4]; [12])	Viable cell count (Candida albicans 12012 [4]; drug concentration 12.5 μg/ml)	Viable cell count (Candida albicans 12012 [4]; drug concentration 25 μg/ml)	MIC (Trichophyton rubrum 7005)	MIC (Trichophyton rubrum 7030 [5])	MIC [6]	MIC (Candida albicans 16010)	MIC (Trichophyton rubrum 7010 [7]; Trichophyton rubrum, 7010, 336 h)	MIC (Trichophyton rubrum 7030 [8]; Trichophyton rubrum, 7030, 336 h)	MIC [9]	MIC [10]	MIC (Trichophyton rubrum 7010 [7]; 336 h, drug alone, test organism i, Trichophyton rubrum 7010, 25° C., 2 weeks, read-out: MIC)	MIC (Trichophyton rubrum 7030 [8]; 336 h, drug alone, test organism j, Trichophyton rubrum 7030, 25° C., 2 weeks, read-out: MIC)
N#C/C(=C1/SCC(c2ccccc2Cl)S1)n1ccnc1 (centres unmarked) [LC, Lanoconazole]	25 µg/mL	12.5 µg/mL	0.025 µg/mL	0.0125 µg/mL	∞ (∞: 10^3˜10^4)	∞ (∞: 10^3˜10^4)	876 CFU/0.1 ml	308 CFU/0.1 ml										
O=[N+]([O-])c1c(Cl)cccc1-c1c[nH]cc1Cl [PY, Pyrrolnitrin]	25 µg/mL	12.5 µg/mL	0.2 µg/mL	0.2 µg/mL					0.1 µg/mL	0.1 µg/mL	25 µg/mL	25 µg/mL	0.2 µg/mL	0.39 µg/mL	25 µg/mL	12.5 µg/mL		
CN(Cc1ccc(C(C)(C)C)cc1)Cc1cccc2ccccc12 [BTF, Butenafine Hydrochloride]									0.025 µg/mL	0.025 µg/mL	25 µg/mL							
CN(C/C=C/C#CC(C)(C)C)Cc1cccc2ccccc12 [TF, Terbinafine Hydrochloride]												50 µg/mL			50 µg/mL	25 µg/mL	0.0125 µg/mL	0.0125 µg/mL
Pyrrolnitrin					∞ (∞: 10^3˜10^4)	∞ (∞: 10^3˜10^4)	1012 CFU/0.1 ml	1 CFU/0.1 ml										
